Measured values published in ChEMBL document CHEMBL1137609, “Low-calcemic, highly antiproliferative, 23-oxa ether analogs of the natural hormone 1 alpha,25-dihydroxyvitamin D3: design, synthesis, and preliminary biological evaluation” (J Med Chem, 2007).
Active and inactive are the calls of the source. No cut-off for these calls is given here.

What was measured:
[1] = test system: Mus musculus; test: Induction of CYP24 mRNA transcriptional activity in C57BL/6 mouse duodenum at 3 ug/kg, ip after 4 hrs; assay type: functional, organism-based
[2] = Lipophilicity, log D of the compound; assay type: physicochemical; settings: octanol/water
[3] = test system: Mus musculus; test: Induction of TRPV6 mRNA transcriptional activity in C57BL/6 mouse duodenum at 3 ug/kg, ip after 4 hrs; assay type: functional, organism-based
[4] = test system: Mus musculus; test: Induction of CYP24 mRNA transcriptional activity in C57BL/6 mouse duodenum at 25 ug/kg, ip after 4 hrs; assay type: functional, organism-based
[5] = test system: Mus musculus; test: Induction of TRPV6 mRNA transcriptional activity in C57BL/6 mouse duodenum at 25 ug/kg, ip after 4 hrs; assay type: functional, organism-based

Structure (SMILES)	logD [2]	further results
C=C1/C(=C\C=C2/CCC[C@]3(C)[C@@H]([C@H](C)CCCC(C)(C)O)CC[C@@H]23)C[C@@H](O)C[C@@H]1O [CALCITRIOL]	3.6	Activity [1]: Active; Activity [3]: Active
C=C1/C(=C\C=C2/CCC[C@]3(C)[C@@H]([C@H](C)COCC#CC(C)(C)C)CC[C@@H]23)C[C@@H](O)C[C@@H]1O	4.6	
C=C1/C(=C\C=C2/CCC[C@]3(C)[C@@H]([C@H](C)COCc4ccco4)CC[C@@H]23)C[C@@H](O)C[C@@H]1O	3.3	
C=C1/C(=C\C=C2/CCC[C@]3(C)[C@@H]([C@H](C)COC/C=C/C(C)(C)C)CC[C@@H]23)C[C@@H](O)C[C@@H]1O	4.9	
C=C(COC[C@@H](C)[C@H]1CC[C@H]2/C(=C/C=C3/C[C@@H](O)C[C@H](O)C3=C)CCC[C@]12C)C1=CCCCC1(C)C	4.9	Activity [4]: Active; Activity [5]: Active
C=C1/C(=C\C=C2/CCC[C@]3(C)[C@@H]([C@H](C)COCC(=C)C4(C)CCCCC4)CC[C@@H]23)C[C@@H](O)C[C@@H]1O	5.3	
C=C(COC[C@@H](C)[C@H]1CC[C@H]2/C(=C/C=C3/C[C@@H](O)C[C@H](O)C3=C)CCC[C@]12C)c1ccccc1	5.1	
C=C1/C(=C\C=C2/CCC[C@]3(C)[C@@H]([C@H](C)COCC(=C)C(C)(C)C)CC[C@@H]23)C[C@@H](O)C[C@@H]1O	4.7	Activity [4]: Active; Activity [5]: Active
C=C1/C(=C\C=C2/CCC[C@]3(C)[C@@H]([C@H](C)COCc4ccccc4)CC[C@@H]23)C[C@@H](O)C[C@@H]1O	4.4	
